Source: ChEMBL document CHEMBL4609983, “Pan-specific and partially selective dye-labeled peptidic inhibitors of the polycomb paralog proteins” (Bioorg Med Chem, 2020)
Active and inactive are the calls of the source. Non-standard residues stand in square brackets, D forms with d. Residues, ends and D or L forms follow the SMILES beside them. *: point of attachment. Biotin = O=C1N[C@H]2[C@H](CS[C@H]2CCCCC(=O)*)N1; Lys(Me3) = C[N+](C)(C)CCCC[C@H](N)C(=O)O; Benzoyl(4-Br) = O=C(c1ccc(Br)cc1)*

Tests used:
[1] = target: T1, Chromodomain Y-like protein 2 (Homo sapiens) (UniProt Q8N8U2); experiment: Binding affinity to recombinant human CDYL2 by microarray based assay
T1 sequence (whole entry): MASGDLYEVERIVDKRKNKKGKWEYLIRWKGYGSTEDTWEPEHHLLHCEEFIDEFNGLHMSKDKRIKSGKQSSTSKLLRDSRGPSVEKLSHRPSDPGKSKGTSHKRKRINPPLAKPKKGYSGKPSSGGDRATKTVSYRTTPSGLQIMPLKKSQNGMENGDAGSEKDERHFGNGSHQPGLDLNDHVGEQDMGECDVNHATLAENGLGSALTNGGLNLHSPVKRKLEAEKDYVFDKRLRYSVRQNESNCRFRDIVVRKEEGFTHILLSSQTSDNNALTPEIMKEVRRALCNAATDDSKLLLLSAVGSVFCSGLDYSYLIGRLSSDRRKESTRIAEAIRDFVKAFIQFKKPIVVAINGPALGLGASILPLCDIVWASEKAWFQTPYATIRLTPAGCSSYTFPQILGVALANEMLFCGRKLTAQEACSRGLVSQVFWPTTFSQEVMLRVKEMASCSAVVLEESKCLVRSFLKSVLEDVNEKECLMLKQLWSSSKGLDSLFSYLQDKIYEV

[2] = target: T2, Chromodomain Y-like protein (Homo sapiens) (UniProt Q9Y232); experiment: Binding affinity to recombinant human CDYL1B by microarray based assay
T2 sequence (whole entry): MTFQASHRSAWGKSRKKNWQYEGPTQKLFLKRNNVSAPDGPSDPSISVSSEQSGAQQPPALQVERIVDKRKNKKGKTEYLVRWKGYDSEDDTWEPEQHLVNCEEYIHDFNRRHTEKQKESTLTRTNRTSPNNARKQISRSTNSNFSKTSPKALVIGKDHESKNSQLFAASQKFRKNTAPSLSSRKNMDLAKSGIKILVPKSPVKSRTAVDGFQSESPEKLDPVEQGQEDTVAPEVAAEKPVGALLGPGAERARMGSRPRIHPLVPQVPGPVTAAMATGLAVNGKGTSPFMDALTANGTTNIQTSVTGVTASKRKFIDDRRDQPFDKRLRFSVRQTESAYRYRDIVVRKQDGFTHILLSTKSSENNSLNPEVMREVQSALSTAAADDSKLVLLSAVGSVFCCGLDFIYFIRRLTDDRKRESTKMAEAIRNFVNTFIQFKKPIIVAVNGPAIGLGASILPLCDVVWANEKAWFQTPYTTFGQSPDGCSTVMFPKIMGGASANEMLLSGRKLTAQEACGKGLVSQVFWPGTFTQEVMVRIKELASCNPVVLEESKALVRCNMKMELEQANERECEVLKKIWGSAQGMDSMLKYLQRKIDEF

[3] = target: T3, Chromobox protein homolog 2 (Homo sapiens) (UniProt Q14781); experiment: Binding affinity to recombinant human CBX2 by microarray based assay
T3 sequence (whole entry): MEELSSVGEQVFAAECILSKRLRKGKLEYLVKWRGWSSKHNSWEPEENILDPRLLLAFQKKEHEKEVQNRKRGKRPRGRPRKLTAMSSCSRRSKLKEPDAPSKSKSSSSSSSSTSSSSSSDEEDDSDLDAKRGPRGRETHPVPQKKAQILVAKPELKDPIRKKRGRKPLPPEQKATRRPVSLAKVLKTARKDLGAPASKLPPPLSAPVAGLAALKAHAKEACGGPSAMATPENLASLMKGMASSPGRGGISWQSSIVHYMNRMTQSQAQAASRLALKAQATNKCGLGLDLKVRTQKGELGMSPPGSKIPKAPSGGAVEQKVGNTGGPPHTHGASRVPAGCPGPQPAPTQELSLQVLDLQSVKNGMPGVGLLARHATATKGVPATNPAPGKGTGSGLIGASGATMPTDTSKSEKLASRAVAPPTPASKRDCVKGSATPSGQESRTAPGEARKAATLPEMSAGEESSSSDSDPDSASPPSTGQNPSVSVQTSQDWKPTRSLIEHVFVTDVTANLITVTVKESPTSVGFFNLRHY

[4] = target: T4, E3 SUMO-protein ligase CBX4 (Homo sapiens) (UniProt O00257); experiment: Binding affinity to recombinant human CBX4 by microarray based assay
T4 sequence (whole entry): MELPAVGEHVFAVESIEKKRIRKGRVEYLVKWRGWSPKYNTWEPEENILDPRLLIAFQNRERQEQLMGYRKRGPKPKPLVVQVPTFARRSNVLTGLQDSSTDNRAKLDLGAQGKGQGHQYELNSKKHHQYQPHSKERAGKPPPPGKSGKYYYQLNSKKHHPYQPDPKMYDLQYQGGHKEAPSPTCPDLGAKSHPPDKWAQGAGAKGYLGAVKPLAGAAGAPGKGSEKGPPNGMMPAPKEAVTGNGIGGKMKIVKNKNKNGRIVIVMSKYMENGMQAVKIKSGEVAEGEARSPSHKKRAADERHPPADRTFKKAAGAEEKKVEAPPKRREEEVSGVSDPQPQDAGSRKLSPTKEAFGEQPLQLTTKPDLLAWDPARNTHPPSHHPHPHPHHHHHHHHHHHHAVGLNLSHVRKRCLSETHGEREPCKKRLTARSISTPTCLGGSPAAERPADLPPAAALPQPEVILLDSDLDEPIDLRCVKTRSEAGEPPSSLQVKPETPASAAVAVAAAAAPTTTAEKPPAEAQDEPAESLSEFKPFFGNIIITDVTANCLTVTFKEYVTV

[5] = target: T5, Chromobox protein homolog 8 (Homo sapiens) (UniProt Q9HC52); experiment: Binding affinity to recombinant human CBX8 by microarray based assay
T5 sequence (whole entry): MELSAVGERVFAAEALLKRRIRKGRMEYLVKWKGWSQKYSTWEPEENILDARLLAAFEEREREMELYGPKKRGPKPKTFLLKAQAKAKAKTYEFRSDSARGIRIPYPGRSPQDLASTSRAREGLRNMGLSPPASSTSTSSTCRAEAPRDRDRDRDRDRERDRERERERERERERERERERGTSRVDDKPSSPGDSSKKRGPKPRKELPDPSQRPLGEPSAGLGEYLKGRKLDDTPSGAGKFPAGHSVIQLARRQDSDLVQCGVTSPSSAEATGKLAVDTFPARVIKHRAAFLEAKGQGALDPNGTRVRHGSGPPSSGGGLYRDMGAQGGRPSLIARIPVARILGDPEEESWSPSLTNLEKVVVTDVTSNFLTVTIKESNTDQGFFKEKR

Measured: Activity

CC(C)C[C@H](NC(=O)[C@H](CO)NC(=O)[C@H](CCCC[N+](C)(C)C)NC(=O)[C@H](Cc1ccc(O)cc1)NC(=O)[C@H](C)NC(=O)[C@H](Cc1ccccc1)NC(=O)c1ccc(Br)cc1)C(=O)N[C@@H](CCCCNC(=O)CCCC[C@@H]1SC[C@@H]2NC(=O)N[C@@H]21)C(N)=O ({Benzoyl(4-Br)}-FAY[Lys(Me3)]SLK(Biotin)-NH2)
active: all assays above
